# Results taken from patent US10010520B2, “Combined application of isothiocyanate compound and anti-cancer medicine” (JC (WUXI) COMPANY, INC., priority 2013, dated 2018).
# Several values for one entry are separate records, joined by “and”; a condition that tells them apart may be missing. Equal entries are not always repeated. Structures can show the parent of a compound that is named as a salt. Where two headings read alike, the source gives them in different places.
# Key:
# LNCaP cells = test: CellTiter-Glo cell viability, drugs alone or in combination, LNCaP cells; assay type: cell-based, human
# Experimental: Cell culture: Androgen-dependent human prostate cancer cells LNCaP, from Shanghai Medicilon Ltd., were placed in a 37° C., 5% CO2 cell incubator, and were cultured in RPMI1640 culture medium with 10% FBS. Androgen-independent human prostate cancer cells DU145, PC-3, from Shanghai Medicilon Ltd., were placed in a 37° C., 5% CO2 cell incubator, and were cultured in F12 culture medium with 10% FBS.
# (§1) isothiocyanates or derivatives thereof and DNA-effecting or influencing anticancer drugs, kinase-inhibiting anticancer drugs or hormonal anticancer drugs for endocrine therapy were administered separately or in combination to cancer cells. Cells were seeded into 384-well plates, and cultured for 24 hours in a CO2 incubator. Drugs were dissolved in DMSO and diluted to 9 concentration-gradients in 96 well plates, and then added to corresponding cells in 384-well plates, in which the concentrations of DMSO in 384 well plates were less than 1%. Triplicate wells were set for each concentration. After administration, the cells were cultured in the CO2 incubator for another 72 hrs, and afterwards, cell viability was tested by using CellTiter-Glo® reagent and luminescence detector. And IC50 values of each administration group were calculated.
# (§2) CI value was calculated by the following formula: CI=(Am)50/(As)50+(Bm)50/(Bs)50,
# (§3) Triplicate wells were set for each co-administration cell well.
# (§4) After administration, cells were cultured in the CO2 incubator for another 72 hrs, and afterwards, cell viability was tested by using CellTiter-Glo® reagent and luminescence detector. Curves were plotted according to concentrations or logarithm concentrations of drug A vs cell inhibition rate in the corresponding cell well, and IC50, i.e. (Am)50 was calculated.
# (§5) 9 concentration gradients of drug A were set (A1, A2, A3, A4, A5, A6, A7, A8, A9), and administrated alone to the corresponding cells in the 384 well plate, and triplicate wells were set for each administration concentration. After administration, the cells were cultured in the CO2 incubator for another 72 hrs, and afterwards, cell viability was tested by using CellTiter-Glo® reagent and luminescence detector. Curves were plotted according to concentration or logarithm concentration of drug A vs the cell inhibition rate in the corresponding cell well, and IC50, i.e. (As)50 was calculated.
# (§6) After administration, the cells were cultured in the CO2 incubator for another 72 hrs, and afterwards, cell viability was tested by using CellTiter-Glo® reagent and luminescence detector.
# [1] = test system: pancreatic cancer cells PANC-1; test: CellTiter-Glo cell viability, drugs alone or in combination, PANC-1 cells; assay type: cell-based, human
# Experimental: as §1, §2, §3, §4, §5, §6
# OVCAR-3 cells = test: CellTiter-Glo cell viability, drugs alone or in combination, OVCAR-3 cells
# U251 cells = test: CellTiter-Glo cell viability, drugs alone or in combination, U251 cells
# [2] = test system: Human breast cancer MDA-MB-231 cells; test: CellTiter-Glo cell viability, drugs alone or in combination, MDA-MB-231 cells; conditions: Homo sapiens, MDA-MB-231, 72 h
# [3] = test system: human kidney cancer cells 786-O; test: CellTiter-Glo cell viability, drugs alone or in combination, 786-O cells; conditions: 786-0, 72 h
# Jurkat E6-1 cells = test: CellTiter-Glo cell viability, drugs alone or in combination, Jurkat E6-1 cells; assay type: cell-based, human; conditions: Homo sapiens
# Experimental: as §1, §2, §3, §4, §5, §6
# Saos-2 cells = test: CellTiter-Glo cell viability, drugs alone or in combination, Saos-2 cells; assay type: cell-based, human; conditions: Homo sapiens, SAOS-2, 72 h
# Experimental: as §1, §2, §3, §4, §5, §6
# [4] = test system: human leukemia HL-60 cells; test: CellTiter-Glo cell viability, drugs alone or in combination, HL-60 cells; assay type: cell-based
# Experimental: as §1, §2, §3, §4, §5, §6
# HeLa cells = test: CellTiter-Glo cell viability, drugs alone or in combination, HeLa cells; assay type: cell-based, human; conditions: 72 hrs, read-out: (Bs)50, IC50 of drug B when used alone
# Experimental: as §1, §2, §3, §4, §5, §6
# [5] = Homo sapiens, LNCaP, 72 h, LNCaP cells, 72 hrs, read-out: (As)50, IC50 of drug A when used alone
# [6] = Homo sapiens, PANC-1 cells, 72 hrs, read-out: (As)50, IC50 of drug A when used alone
# [7] = Homo sapiens, OVCAR-3, 72 h, read-out: (As)50, IC50 of drug A when used alone
# [8] = PANC-1 cells, 72 hrs, read-out: (As)50, IC50 of drug A when used alone
# [9] = Homo sapiens, U-251, 72 h, read-out: (Bs)50, IC50 of drug B when used alone, U251 cells, 72 hrs
# [10] = read-out: (Bs)50, IC50 of drug B when used alone, 786-O cells, 72 hrs
# [11] = LNCaP cells, 72 hrs, read-out: (As)50, IC50 of drug A when used alone
# [12] = read-out: (As)50, IC50 of drug A when used alone
# [13] = 72 hrs, read-out: (Bs)50, IC50 of drug B when used alone
# [14] = Homo sapiens, HL-60, 72 h, read-out: (Bs)50, IC50 of drug B when used alone
compound,measurement,setting,value
"S=C=NCCCc1ccccc1 [3-Phenylpropyl isothiocyanate, 3-phenyl propyl isothiocyanate]",IC50,LNCaP cells; [5],24.5 µM
"S=C=NCCCCc1ccccc1 [4-Phenbutyl isothiocyanate, 4-phenylbutyl isothiocyanate]",IC50,[1]; [6],26.9 µM
same,IC50,LNCaP cells; [5],17.5 µM
S=C=NCc1ccc(Cl)cc1 [4-chloro-benzyl isothiocyanate],IC50,"[1]; Homo sapiens, PANC-1, 72 h, read-out: (As)50, IC50 of drug A when used alone",34 µM
same,IC50,"LNCaP cells; Homo sapiens, LNCaP, 72 h, read-out: (As)50, IC50 of drug A when used alone",17.3 µM
same,IC50,OVCAR-3 cells; [7],18.2 µM
COc1ccc(CN=C=S)cc1 [4-methoxy-benzyl isothiocyanate],IC50,[1]; [6],11.3 µM
"S=C=NCCCCCCc1ccccc1 [6-Phenhexyl isothiocyanate, 6-phenyl-hexyl isothiocyanate]",IC50,[1]; [6],30.9 µM
same,IC50,LNCaP cells; [5],18.8 µM
CC(N=C=S)c1ccccc1 [L-ethyl phenyl isothiocyanate],IC50,[1]; [8],24 µM
same,IC50,"OVCAR-3 cells; read-out: (As)50, IC50 of drug A when used alone, OVCAR-3 cells, 72 hrs",43.6 µM
O=NN(CCCl)C(=O)NC1CCCCC1 [Lomustine],IC50,U251 cells; [9],65.4 µM
same,IC50,"U251 cells; read-out: (Bs)50, IC50 of drug B when used alone, U251 cells, 72 hrs",115 µM
"CC(=O)O[C@H]1C(=O)[C@@]2(C)[C@H]([C@H](OC(=O)c3ccccc3)[C@]3(O)C[C@H](OC(=O)[C@H](O)[C@@H](NC(=O)c4ccccc4)c4ccccc4)C(C)=C1C3(C)C)[C@]1(OC(C)=O)CO[C@@H]1C[C@@H]2O [Paclitaxel, paclitaxel, reference compound]",IC50,"[2]; read-out: (Bs)50, IC50 of drug B when used alone, MDA-MB-231 cells, 72 hrs",0.0199 µM
"Cc1ccc(Nc2nccc(N(C)c3ccc4c(C)n(C)nc4c3)n2)cc1S(N)(=O)=O [Pazopanib, pazopanib, reference compound]",IC50,[3]; [10],199 µM
"S=C=Nc1ccccc1 [Phenyl isothiocyanate, phenyl isothiocyanate]",IC50,[1]; [6],77.2 µM
same,IC50,LNCaP cells; [5],43.6 µM
"S=C=NCCCc1ccccc1 [Phenylpropyl isothiocyanate, phenylpropyl isothiocyanate]",IC50,[1]; [6],35.1 µM
same,IC50,LNCaP cells; [11],22.9 µM
"C#CCC(Cc1cnc2nc(N)nc(N)c2n1)c1ccc(C(=O)N[C@@H](CCC(=O)O)C(=O)O)cc1 (stereo partly shown) [Pralatrexate, reference compound]",IC50,"Jurkat E6-1 cells; Jurkat E6.1, 72 h, Jurkat E6-1 cells, 72 hrs, read-out: (Bs)50, IC50 of drug B when used alone",0.0017 µM
"C/C=C1\NC(=O)[C@H]2CSSCC/C=C/[C@H](CC(=O)N[C@H](C(C)C)C(=O)N2)OC(=O)[C@H](C(C)C)NC1=O [Romidepsin, romidepsin, reference compound]",IC50,"Jurkat E6-1 cells; Jurkat E6-1 cells, 72 hrs, read-out: (Bs)50, IC50 of drug B when used alone",0.00201 µM
"CNC(=O)c1cc(Oc2ccc(NC(=O)Nc3ccc(Cl)c(C(F)(F)F)c3)cc2)ccn1 [Sorafenib, sorafenib, reference compound]",IC50,[3]; [10],6.99 µM
C=CCN=C=S [allyl isothiocyanate],IC50,[1]; [6],116 µM
"Cn1c(CCCC(=O)O)nc2cc(N(CCCl)CCCl)ccc21 [bendamustine, Bendamustine, reference compound]",IC50,"Jurkat E6-1 cells; Jurkat E6.1, 72 h, read-out: (Bs)50, IC50 of drug B when used alone",> 100 µM
"CC(C)C[C@H](NC(=O)[C@H](Cc1ccccc1)NC(=O)c1cnccn1)B(O)O [bortezomib, reference compound]",IC50,"Saos-2 cells; Saos-2 cells, 72 hrs, read-out: (Bs)50, IC50 of drug B when used alone",0.807 µM
"N.N.O=C([O-])C1(C(=O)[O-])CCC1.[Pt+2] [carboplatin, Carboplatin]",IC50,"OVCAR-3 cells; read-out: (Bs)50, IC50 of drug B when used alone, OVCAR-3 cells, 72 hrs",58.9 µM and 38.7 µM
S=C=NC1CCCCC1 [cyclohexyl isothiocyanate],IC50,[3]; [12],107 µM
same,IC50,[1]; [6],193 µM
same,IC50,LNCaP cells; [5],54 µM
same,IC50,Saos-2 cells; [12],66 µM
same,IC50,"Jurkat E6-1 cells; Jurkat E6-1 cells, 72 hrs, read-out: (As)50, IC50 of drug A when used alone",42.1 µM
same,IC50,"U251 cells; Homo sapiens, U-251, 72 h, read-out: (As)50, IC50 of drug A when used alone",71.1 µM
same,IC50,"[4]; Homo sapiens, HL-60, 72 h, read-out: (As)50, IC50 of drug A when used alone",52.7 µM
same,IC50,OVCAR-3 cells; [7],36.5 µM
same,IC50,[2]; [12],37.5 µM
"O=P1(N(CCCl)CCCl)NCCCO1 (stereo not shown) [cyclophosphamide, Cyclophosphamide]",IC50,"OVCAR-3 cells; Homo sapiens, OVCAR-3, 72 h, read-out: (Bs)50, IC50 of drug B when used alone",> 100 µM
"COc1cccc2c1C(=O)c1c(O)c3c(c(O)c1C2=O)C[C@@](O)(C(C)=O)C[C@@H]3O[C@H]1C[C@H](N)[C@H](O)[C@H](C)O1 [daunorubicin, Daunorubicin]",IC50,[4]; [13],0.236 µM
"C#Cc1cccc(Nc2ncnc3cc(OCCOC)c(OCCOC)cc23)c1 [erlotinib, reference compound]",IC50,"[1]; Homo sapiens, PANC-1, 72 h, PANC-1 cells, 72 hrs, read-out: (Bs)50, IC50 of drug B when used alone",> 100 µM
CO[C@H]1C[C@@H]2CC[C@@H](C)[C@@](O)(O2)C(=O)C(=O)N2CCCC[C@H]2C(=O)O[C@H]([C@H](C)C[C@@H]2CC[C@@H](OCCO)[C@H](OC)C2)CC(=O)[C@H](C)/C=C(\C)[C@@H](O)[C@@H](OC)C(=O)[C@H](C)C[C@H](C)/C=C/C=C/C=C/1C [everolimus],IC50,U251 cells; [9],23.7 µM
"Nc1nc(F)nc2c1ncn2[C@@H]1O[C@H](CO)[C@@H](O)[C@@H]1O [fludarabine, Fludarabine]",IC50,[4]; [14],1.57 µM
"CCNC(=O)[C@@H]1CCCN1C(=O)[C@H](CCCNC(=N)N)NC(=O)[C@H](CC(C)C)NC(=O)[C@@H](CC(C)C)NC(=O)[C@H](Cc1ccc(O)cc1)NC(=O)[C@H](CO)NC(=O)[C@H](Cc1c[nH]c2ccccc12)NC(=O)[C@H](Cc1c[nH]cn1)NC(=O)[C@@H]1CCC(=O)N1 [leuprorelin, reference compound]",IC50,"LNCaP cells; LNCaP cells, 72 hrs, read-out: (Bs)50, IC50 of drug B when used alone",323 µM
Cc1cn(-c2cc(NC(=O)c3ccc(C)c(Nc4nccc(-c5cccnc5)n4)c3)cc(C(F)(F)F)c2)cn1 [nilotinib],IC50,[4]; [14],3.9 µM
CC(=O)N[C@@H](CSC(=S)NCCc1ccccc1)C(=O)O [phenethyl isothiocyanate-N-acetylcysteine adduct],IC50,[1]; [8],28.6 µM
same,IC50,LNCaP cells; [11],16.4 µM
"C[S+]([O-])CCCCN=C=S (stereo not shown) [sulforaphane, 1-isothiocyanate-4-methanesulfonyl butane]",IC50,"[1]; Homo sapiens, PANC-1, 72 h, PANC-1 cells, 72 hrs, read-out: (As)50, IC50 of drug A when used alone",14.3 µM
same,IC50,LNCaP cells; [5],15.3 µM
"CC[C@@]1(O)C(=O)OCc2c1cc1n(c2=O)Cc2cc3c(CN(C)C)c(O)ccc3nc2-1 [topotecan, Topotecan]",IC50,"OVCAR-3 cells; Homo sapiens, OVCAR-3, 72 h, read-out: (Bs)50, IC50 of drug B when used alone, OVCAR-3 cells, 72 hrs",0.0774 µM
S=C=NC(c1ccccc1)(c1ccccc1)c1ccccc1 [trityl isothiocyanate],IC50,[1]; [6],> 50 µM
same,IC50,LNCaP cells; [5],238 µM
CC[C@]1(O)C[C@H]2CN(CCc3c([nH]c4ccccc34)[C@@](C(=O)OC)(c3cc4c(cc3OC)N(C=O)[C@H]3[C@@](O)(C(=O)OC)[C@H](OC(C)=O)[C@]5(CC)C=CCN6CC[C@]43[C@@H]65)C2)C1 [vincristine sulfate],IC50,[4]; [13],0.0126 µM
Bleomycin [reference compound],IC50,HeLa cells,24.5 µM
arsenic trioxide,IC50,[4]; [13],2.75 µM
